One test relates to ATF3 and ATF4. Put plainly: Western blot of ATF3 and ATF4 protein. The following applies: TPC1 cells; nelfinavir alone. The format is cell-based. The method, then: (§1) Protein samples were prepared with cells washed twice with PBS and lysed in modified Laemmli buffer (Laemmli, 1970) (1% w/v SDS, 10% w/v glycerol, 100 mM Tris pH 7.2, protease (complete Mini, Roche) and phosphatase (PhosSTOP, Roche) inhibitors). Following a brief sonication (2.5W, 5 sec) and heat denaturation (90° C., 5 min), total protein concentration in whole cell lysates was measured by a BCA Protein Assay Kit (Pierce, Thermo Fisher Scientific). 20 μg of protein per sample was resolved by SDS-PAGE and transferred onto a 0.45 μm PVDF membrane (0.2 μm for ATF3 detection). Membranes were incubated in blocking buffer (5% fat-free milk in wash buffer—20 mM Tris pH 7.6, 150 mM NaCl, 0.2% Tween 20) for an hour at RT and o/n at 4° C. with the primary antibody diluted in a fresh blocking buffer. Next day membranes were washed three times for 10 min in the wash buffer, incubated with HRP-conjugated secondary antibody for an hour at RT, and washed again three times in the wash buffer. SuperSignal West Pico Plus Chemiluminescence Substrate (Pierce) was used for detection and digital images were acquired using an ImageQuant LAS 4000 (GE Healthcare Life Sciences).
(A western blot detects proteins with antibodies after separation by electrophoresis.)

For a further test, the system named is elF2α. Put plainly: Western blot of elF2α phosphorylation. The format is cell-based. Particulars: 10 μM nutlin-3a, 25 μM GSK2830371, 20 μM nelfinavir; multiple cell lines. The method, then:
as §1

For another test, the system named is TPC1 and HCT116. Put plainly: Polysome profiling (polysome/monosome ratio). The format is cell-based. Particulars: 24 hours. The method, then:
TPC1 and HCT116 were plated at 6*104/cm2 on 143 cm2 dishes, cultivated o/n, and treated accordingly. Ten minutes before the harvest cultivation media was supplemented with cycloheximide (CHX) at final concentration of 100 μg/ml. Next, cells were washed twice with ice-cold PBS with 100 μg/ml CHX and lysed in polysome preparation lysis buffer (20 mM HEPES pH 7.4, 15 mM MgCl2, 200 mM NaCl, 1% Triton X-100, 100 μg/ml CHX, 2 mM DTT, and 100U SuperaseIN). Lysates were cleared of debris by centrifugation at 20,000g, 4° C. for 10 minutes. Total nucleic acid content in lysates was measured by absorbance at 260 nm and used for sample concentration normalization. Next, 500 μl of the lysate was loaded on 10-60% sucrose gradients in SW41 tubes in lysis buffer lacking Triton X-100. These gradients were prepared using a BioComp system and chilled to 4° C. before use. Samples were ultracentrifuged at 36,000 rpm for 3 hours and 10 min, at 4° C., then samples were fractionated using a BioComp system, monitoring absorbance at 260 nm while collecting fractions of approximately 0.4 ml each.

A further test has as its system caspase 3. Put plainly: Western blot of caspase 3 cleavage. Type of test: cell-based. Particulars: TPC1 cells; 20 μM nelfinavir, alone or with 10 μM nutlin-3a. The method, then:
as §1, with “Following” for “Protein samples were prepared with cells washed twice with PBS and lysed in modified Laemmli buffer (Laemmli, 1970) (1% w/v SDS, 10% w/v glycerol, 100 mM Tris pH 7.2, protease (complete Mini, Roche) and phosphatase (PhosSTOP, Roche) inhibitors). Following”

The next test has as its system diverse cell types. Put plainly: Annexin V-FITC/PI apoptosis assay, elF2α plus MDM2 inhibition. Type of test: cell-based. The method, then:
TPC1, K1, HCT116, MCF7, SJSA, and HEK293FT cells were cultivated in RPMI (TPC1, SJSA), DMEM (K1, MCF7, HEK293FT), and McCoy's (HCT116) media (Gibco, Thermo Fisher Scientific) supplemented with 10% fetal bovine serum (Peak Serum) and 1% antibiotic-antimycotic mixture (Gibco). Cells were plated a day before the treatment and maintained in a humidified atmosphere with 5% of CO2 at 37° C. Both TPC1 and K1 lines were gifts from Dr. Rebecca Schweppe, University of Colorado Anschutz Medical Campus (CU-AMC). Cell line identity has been verified by short tandem repeats profiling at the Cell Technologies Shared Resource, CU-AMC. Colorectal cancer organoid cultures (CRC172) were obtained from the Enteroid Stem Cell Core facility at CU-AMC.
The fraction of apoptotic cells was determined by Annexin V-FITC/PI assay. Briefly, cells harvested by trypsinization were resuspended in Annexin-V binding buffer (10 mM HEPES pH 7.4, 140 mM NaCl, 2.5 mM CaCl2)). Approximately 2*10^5 cells were labeled with Annexin-V-FITC (Invitrogen) and PI (10 μg/ml, Millipore-Sigma) for 15 minutes in the dark before flow cytometric analysis (Accuri C6, Becton Dickinson). […] An aliquot of approximately 5*10^5 cells per sample was mixed with tetramethylrhodamine, ethyl ester, perchlorate (TMRE, Thermo Fisher, 100 nM final concentration) solution, incubated for 10 minutes in the dark, and analyzed by flow cytometer.

For another test, the system named is HCT116 xenograft tumors. Put plainly: HCT116 xenograft tumor model. The format is in vivo. The following applies: nude mice, 200 mg/kg nelfinavir and/or 200 mg/kg milademetan. The method, then:
Athymic nude mice (NU/NU) weighting 20 to 30 grams and being 8-12 weeks of age (Charles River Labs) were housed in cages under standard conditions (22° C., 50% relative humidity, 12-h light/dark cycles) and provided with food and water ad libitum. Next, […] exponentially growing HCT116 cells resuspended in 100 μl Matrigel/PBS (5 mg/ml final) were injected subcutaneously into both flanks. Tumors grew for 10-14 days before treatment initiation. Experimental animals were given 200 mg/kg nelfinavir and/or 200 mg/kg Milademetan (Rain Therapeutics) by oral gavage once daily, 5 days a week. Tested compounds were prepared in a mixture of 2% Klucel (hydroxypropyl cellulose), 0.5% Tween 80, and 35% ethanol. Tumor volumes (v) were estimated daily, 5 days a week using caliper measurements and formula v=(I×w^2)/2, where I represents the greatest length of the tumor and w is tumor width in the perpendicular axis. Average volumes of the right and left flank tumors were used for plotting and calculations. Equal ratios of male and female mice were used in treatment groups (5 males and 5 females). All in vivo experiments were approved by the Institutional Animal Care and Use Committee at the CU-AMC (IACUC protocol 00432).
After indicated treatments, cells were washed with PBS, total RNA was extracted using Trizol substitute (38% Phenol, saturated, pH 4.3, 0.8 M guanidine thiocyanate, 0.4 M ammonium thiocyanate, 0.1 M sodium acetate, pH 5.0, 5% glycerol), and converted to cDNA with High-Capacity cDNA Reverse Transcription Kit (Thermo Fisher). Next, diluted cDNA was used in quantitative PCR reaction using SYBR Select Master Mix for CFX (Thermo Fisher). Detected mRNA levels were normalized to 18s rRNA values.
Tumors fixed in 4% formaldehyde were transferred to 70% ethanol and embedded in paraffin at the Pathology Shared Resource-Research Histology, University of Colorado Anschutz Medical Campus. Three tumors from each experimental group were sectioned, stained with DAPI and Ki67 primary antibody using Akoya Opal technology (Akoya Biosciences), and scanned at six representative regions with Vectra 3.0 (Akoya Biosciences) at the Human Immune Monitoring Shared Resource (University of Colorado Anschutz). Next, InForm image analysis software (Akoya Biosciences) was used for automated identification of nuclei based on the DAPI signal. Ki67 nuclear fluorescence was outputted for all nuclei.

We go through 1 compound from US20250127777A1, “DUAL INHIBITION OF MDM2 AND EIF2-ALPHA INDUCES CELL DEATH IN MULTIPLE CANCER CELL TYPES” (The Regents of the University of Colorado, A Body Corporate, priority 2022, published 2025).

As to `Cc1c(O)cccc1C(=O)N[C@@H](CSc1ccccc1)[C@H](O)CN1C[C@H]2CCCC[C@H]2C[C@H]1C(=O)NC(C)(C)C` [nelfinavir], the ATF4 protein stabilization entry with ATF3 and ATF4 was “stabilized ATF4”. Also, the elF2α phosphorylation result in the test on elF2α was “induced elF2α phosphorylation”. The polysome/monosome ratio entry in the test on TPC1 and HCT116 is given as “decreased the polysome/monosome ratio”. In addition, the “caspase 3 cleavage / activation” value with caspase 3 was “did not induced caspase 3 cleavage”. The “synergy with small molecule inhibitors of MDM2 to elicit p53-dependent cell death” value with diverse cell types is reported as “synergize with small molecule inhibitors of MDM2 to elicit p53-dependent cell death”. Also, the “animal survival (Kaplan Meier; humane endpoint tumor size>1000 mm^3)” value in the test on HCT116 xenograft tumors (oral gavage) was “had to be sacrificed at the humane endpoint”. In addition, in the test on HCT116 xenograft tumors (oral gavage once daily, 5 days a week), the tumor growth entry is “Tumors continued to grow”.
